These results are taken from patent US12714706B2, “Methods of treating small cell lung cancer with lurbinectedin formulations” (PHARMA MAR, S.A., priority 2019, dated 2026).

A short description of the series: Analytical results and impurity profile of batches of Form A and Form B of lurbinectedin. Also noted: Impurity RRT approx. 1.10-1.11 / Impurity RRT approx. 1.12 / Impurity RRT approx. 1.27-1.34 / Impurity RRT approx. 1.29-1.30 / Impurity RRT approx. 1.30-1.32 / Impurity RRT approx. 1.28-1.37 / Impurity RRT approx. 2.37 / Impurity RRT approx. 2.41-2.52 / Impurity RRT approx. 2.85 / Impurity RRT approx. 0.66-0.69 / Impurity RRT approx. 0.72-0.76: unit not given here. The following applies: for Residual Solvents Acetonitrile / Residual Solvents CH2Cl2 / Residual Solvents Methanol / Residual Solvents Pentane / Residual Solvents Total / Total Impurities / Water Content: batches of Form B of lurbinectedin. Format: physicochemical. The text has this:
Several batches of Form A of lurbinectedin were manufactured by this method.
Several batches of Form B of lurbinectedin were manufactured by this method.

[1] abbreviates: impurity profile, batches of Form B.
[2] abbreviates: impurity profile, batches of Form A.

Turning to `COc1ccc2[nH]c3c(c2c1)CCN[C@]31CS[C@@H]2c3c(OC(C)=O)c(C)c4c(c3[C@H](COC1=O)N1[C@@H]2[C@H]2c3c(cc(C)c(OC)c3O)C[C@@H]([C@@H]1O)N2C)OCO4` [Batch 1711182-2], the “Residual Solvents Acetonitrile” value is “<LOQ”, the “Residual Solvents CH2Cl2” value is on record as “<LOQ”, the “Residual Solvents Methanol” value was “<LOQ” and the “Residual Solvents Pentane” value is “<LOQ”. Further, the “Residual Solvents Total” value is 0.0 % w/w, the “Total Impurities” value turned out to be 0.3 % Area and the “Water Content” value worked out at 2.4 % w/w. The “Impurity RRT aprox 0.72-0.76” value under setting [1] is on record as 0.34 % area.
`COc1ccc2[nH]c3c(c2c1)CCN[C@]31CS[C@@H]2c3c(OC(C)=O)c(C)c4c(c3[C@H](COC1=O)N1[C@@H]2[C@H]2c3c(cc(C)c(OC)c3O)C[C@@H]([C@@H]1O)N2C)OCO4` [Batch 1711189-2]: the “Residual Solvents Acetonitrile” value was “<LOQ”, the “Residual Solvents CH2Cl2” value is on record as “<LOQ”, the “Residual Solvents Methanol” value is “<LOQ” and the “Residual Solvents Pentane” value is “<LOQ”. In addition, the “Residual Solvents Total” value is 0.0 % w/w, the “Total Impurities” value is on record as 0.3 % Area and the “Water Content” value is listed as 2.5 % w/w. Under setting [1], the “Impurity RRT aprox 0.66-0.69” value stood at 0.05 % area and the “Impurity RRT aprox 0.72-0.76” value was 0.30 % area.
Regarding `COc1ccc2[nH]c3c(c2c1)CCN[C@]31CS[C@@H]2c3c(OC(C)=O)c(C)c4c(c3[C@H](COC1=O)N1[C@@H]2[C@H]2c3c(cc(C)c(OC)c3O)C[C@@H]([C@@H]1O)N2C)OCO4` [Batch 1799069], the “Residual Solvents Acetonitrile” value is reported as “<LOQ”, the “Residual Solvents CH2Cl2” value is reported as “<LOQ”, the “Residual Solvents Methanol” value is given as “<LOQ” and the “Residual Solvents Pentane” value is “<LOQ”. Moreover, the “Residual Solvents Total” value worked out at 0.0 % w/w, the “Total Impurities” value came to 0.4 % Area and the “Water Content” value is 2.0 % w/w. For the same molecule, under setting [1], the “Impurity RRT aprox 0.72-0.76” value is 0.31 % area and the “Impurity RRT aprox 1.10-1.11” value is 0.06 % area.
In the case of `COc1ccc2[nH]c3c(c2c1)CCN[C@]31CS[C@@H]2c3c(OC(C)=O)c(C)c4c(c3[C@H](COC1=O)N1[C@@H]2[C@H]2c3c(cc(C)c(OC)c3O)C[C@@H]([C@@H]1O)N2C)OCO4` [Batch F02], under setting [2], the “Impurity RRT approx. 0.66-0.69” value worked out at 0.19, the “Impurity RRT approx. 0.72-0.76” value is reported as 0.06, the “Impurity RRT approx. 1.10-1.11” value came to 0.17 and the “Impurity RRT approx. 1.27-1.34” value stood at 0.12. Under setting [2], the “Impurity RRT approx. 1.30-1.32” value is given as 0.09, the “Impurity RRT approx. 2.41-2.52” value came to 0.07 and the “Impurity RRT approx. 2.85” value came to 0.07.
Take `COc1ccc2[nH]c3c(c2c1)CCN[C@]31CS[C@@H]2c3c(OC(C)=O)c(C)c4c(c3[C@H](COC1=O)N1[C@@H]2[C@H]2c3c(cc(C)c(OC)c3O)C[C@@H]([C@@H]1O)N2C)OCO4` [Batch G01]: under setting [2], the “Impurity RRT approx. 0.66-0.69” value is 0.06, the “Impurity RRT approx. 0.72-0.76” value is given as 0.11, the “Impurity RRT approx. 1.10-1.11” value worked out at 0.50 and the “Impurity RRT approx. 1.30-1.32” value is 0.13.
In the case of `COc1ccc2[nH]c3c(c2c1)CCN[C@]31CS[C@@H]2c3c(OC(C)=O)c(C)c4c(c3[C@H](COC1=O)N1[C@@H]2[C@H]2c3c(cc(C)c(OC)c3O)C[C@@H]([C@@H]1O)N2C)OCO4` [Batch K02], under setting [2], the “Impurity RRT approx. 0.72-0.76” value amounted to 0.09, the “Impurity RRT approx. 1.10-1.11” value worked out at 0.13, the “Impurity RRT approx. 1.29-1.30” value worked out at 0.07 and the “Impurity RRT approx. 1.30-1.32” value stood at 0.19.
In the case of `COc1ccc2[nH]c3c(c2c1)CCN[C@]31CS[C@@H]2c3c(OC(C)=O)c(C)c4c(c3[C@H](COC1=O)N1[C@@H]2[C@H]2c3c(cc(C)c(OC)c3O)C[C@@H]([C@@H]1O)N2C)OCO4` [Batch K03], under setting [2], the “Impurity RRT approx. 0.72-0.76” value was determined as 0.07, the “Impurity RRT approx. 1.10-1.11” value is reported as 0.17, the “Impurity RRT approx. 1.29-1.30” value turned out to be 0.37 and the “Impurity RRT approx. 1.30-1.32” value was 0.08.
